Data taken from ChEMBL document CHEMBL4507264, “Data for DCP probe BAY-7598” (2021).

Legend:
[1] = target: Mitogen-activated protein kinase kinase kinase 7 (Homo sapiens) (UniProt O43318); settings: Compound concentration 1000.0 nM
[2] = target: Insulin-like growth factor 1 receptor (Homo sapiens) (UniProt P08069); settings: Compound concentration 1000.0 nM
[3] = target: Tyrosine-protein kinase receptor UFO (Homo sapiens) (UniProt P30530); settings: Compound concentration 1000.0 nM
[4] = target: Serine/threonine-protein kinase ICK (Homo sapiens) (UniProt Q9UPZ9); settings: Compound concentration 1000.0 nM
[5] = target: Mitogen-activated protein kinase kinase kinase 3 (Homo sapiens) (UniProt Q99759); settings: Compound concentration 1000.0 nM
[6] = target: Macrophage colony-stimulating factor 1 receptor (Homo sapiens) (UniProt P07333); settings: Compound concentration 1000.0 nM
[7] = target: Dual specificity mitogen-activated protein kinase kinase 2 (Homo sapiens) (UniProt P36507); settings: Compound concentration 1000.0 nM
[8] = target: Myosin light chain kinase family member 4 (Homo sapiens) (UniProt Q86YV6); settings: Compound concentration 1000.0 nM
[9] = target: Aurora kinase B (Homo sapiens) (UniProt Q96GD4); settings: Compound concentration 1000.0 nM
[10] = target: Serine/threonine-protein kinase ULK3 (Homo sapiens) (UniProt Q6PHR2); settings: Compound concentration 1000.0 nM
[11] = system: Tyrosine-protein kinase ABL1 (Homo sapiens), P00519 [Y253F]; settings: Compound concentration 1000.0 nM
[12] = system: Proto-oncogene tyrosine-protein kinase receptor Ret (Homo sapiens), P07949 [V804M]; settings: Compound concentration 1000.0 nM
[13] = target: Interleukin-1 receptor-associated kinase 1 (Homo sapiens) (UniProt P51617); settings: Compound concentration 1000.0 nM
[14] = target: Myosin-IIIa (Homo sapiens) (UniProt Q8NEV4); settings: Compound concentration 1000.0 nM
[15] = target: Serine/threonine-protein kinase MAK (Homo sapiens) (UniProt P20794); settings: Compound concentration 1000.0 nM
[16] = target: Serine/threonine-protein kinase SIK3 (Homo sapiens) (UniProt Q9Y2K2); settings: Compound concentration 1000.0 nM
[17] = target: Beta-adrenergic receptor kinase 1 (Homo sapiens) (UniProt P25098); settings: Compound concentration 1000.0 nM
[18] = target: Calcium/calmodulin-dependent protein kinase type IV (Homo sapiens) (UniProt Q16566); settings: Compound concentration 1000.0 nM
[19] = system: Mast/stem cell growth factor receptor Kit (Homo sapiens), P10721 [V559D,V654A]; settings: Compound concentration 1000.0 nM
[20] = target: Mitogen-activated protein kinase kinase kinase kinase 5 (Homo sapiens) (UniProt Q9Y4K4); settings: Compound concentration 1000.0 nM
[21] = target: T1, 5-hydroxytryptamine receptor 1A (Homo sapiens) (UniProt P08908); settings: Compound concentration 10.0 uM
T1 sequence (whole entry): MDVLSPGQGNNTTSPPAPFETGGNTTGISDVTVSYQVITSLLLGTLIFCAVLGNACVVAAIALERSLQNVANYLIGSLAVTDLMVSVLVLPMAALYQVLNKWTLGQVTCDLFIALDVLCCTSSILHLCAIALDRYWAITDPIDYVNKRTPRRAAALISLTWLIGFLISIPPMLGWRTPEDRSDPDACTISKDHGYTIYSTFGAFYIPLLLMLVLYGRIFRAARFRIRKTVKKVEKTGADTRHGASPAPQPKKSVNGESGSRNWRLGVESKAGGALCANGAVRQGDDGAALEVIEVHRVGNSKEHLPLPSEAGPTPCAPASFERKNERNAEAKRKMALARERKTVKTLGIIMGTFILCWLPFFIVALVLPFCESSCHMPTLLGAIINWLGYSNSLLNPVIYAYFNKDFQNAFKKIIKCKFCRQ

[22] = target: Ribosomal protein S6 kinase alpha-5 (Homo sapiens) (UniProt O75582); settings: Compound concentration 1000.0 nM
[23] = target: RAF proto-oncogene serine/threonine-protein kinase (Homo sapiens) (UniProt P04049); settings: Compound concentration 1000.0 nM
[24] = target: Sigma intracellular receptor 2 (Homo sapiens) (UniProt Q5BJF2); settings: Compound concentration 10.0 uM
[25] = target: G protein-coupled receptor kinase 3 (Homo sapiens) (UniProt P35626); settings: Compound concentration 1000.0 nM
[26] = target: Mast/stem cell growth factor receptor Kit (Homo sapiens) (UniProt P10721); settings: Compound concentration 1000.0 nM
[27] = target: Fibroblast growth factor receptor 2 (Homo sapiens) (UniProt P21802); settings: Compound concentration 1000.0 nM
[28] = target: Casein kinase I isoform epsilon (Homo sapiens) (UniProt P49674); settings: Compound concentration 1000.0 nM
[29] = target: Proto-oncogene tyrosine-protein kinase receptor Ret (Homo sapiens) (UniProt P07949); settings: Compound concentration 1000.0 nM
[30] = target: Protein kinase C delta type (Homo sapiens) (UniProt Q05655); settings: Compound concentration 1000.0 nM
[31] = system: Phosphatidylinositol 4,5-bisphosphate 3-kinase catalytic subunit alpha isoform (Homo sapiens), P42336 [H1047Y]; settings: Compound concentration 1000.0 nM
[32] = target: Tyrosine-protein kinase JAK1 (Homo sapiens) (UniProt P23458); settings: Compound concentration 1000.0 nM
[33] = target: cAMP-dependent protein kinase catalytic subunit beta (Homo sapiens) (UniProt P22694); settings: Compound concentration 1000.0 nM
[34] = target: Tyrosine-protein kinase ZAP-70 (Homo sapiens) (UniProt P43403); settings: Compound concentration 1000.0 nM
[35] = target: Serine/threonine-protein kinase PAK 4 (Homo sapiens) (UniProt O96013); settings: Compound concentration 1000.0 nM
[36] = target: Cyclin-dependent kinase-like 5 (Homo sapiens) (UniProt O76039); settings: Compound concentration 1000.0 nM
[37] = target: Tyrosine-protein kinase Fes/Fps (Homo sapiens) (UniProt P07332); settings: Compound concentration 1000.0 nM
[38] = system: Epidermal growth factor receptor (Homo sapiens), P00533 [UNDEFINED MUTATION]; settings: Compound concentration 1000.0 nM
[39] = target: Casein kinase I isoform gamma-3 (Homo sapiens) (UniProt Q9Y6M4); settings: Compound concentration 1000.0 nM

Aurora kinase B (Homo sapiens), sequence (Q96GD4 whole entry): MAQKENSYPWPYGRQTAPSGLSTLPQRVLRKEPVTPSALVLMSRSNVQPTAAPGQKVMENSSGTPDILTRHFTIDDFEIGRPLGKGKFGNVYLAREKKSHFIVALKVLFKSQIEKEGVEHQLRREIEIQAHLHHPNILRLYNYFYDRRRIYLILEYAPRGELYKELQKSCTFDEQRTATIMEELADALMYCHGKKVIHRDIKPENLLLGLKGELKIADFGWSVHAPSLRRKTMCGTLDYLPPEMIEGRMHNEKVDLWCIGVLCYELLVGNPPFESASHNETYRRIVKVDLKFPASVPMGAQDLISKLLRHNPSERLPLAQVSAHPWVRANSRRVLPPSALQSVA
Interleukin-1 receptor-associated kinase 1 (Homo sapiens), sequence (P51617 whole entry, looked up): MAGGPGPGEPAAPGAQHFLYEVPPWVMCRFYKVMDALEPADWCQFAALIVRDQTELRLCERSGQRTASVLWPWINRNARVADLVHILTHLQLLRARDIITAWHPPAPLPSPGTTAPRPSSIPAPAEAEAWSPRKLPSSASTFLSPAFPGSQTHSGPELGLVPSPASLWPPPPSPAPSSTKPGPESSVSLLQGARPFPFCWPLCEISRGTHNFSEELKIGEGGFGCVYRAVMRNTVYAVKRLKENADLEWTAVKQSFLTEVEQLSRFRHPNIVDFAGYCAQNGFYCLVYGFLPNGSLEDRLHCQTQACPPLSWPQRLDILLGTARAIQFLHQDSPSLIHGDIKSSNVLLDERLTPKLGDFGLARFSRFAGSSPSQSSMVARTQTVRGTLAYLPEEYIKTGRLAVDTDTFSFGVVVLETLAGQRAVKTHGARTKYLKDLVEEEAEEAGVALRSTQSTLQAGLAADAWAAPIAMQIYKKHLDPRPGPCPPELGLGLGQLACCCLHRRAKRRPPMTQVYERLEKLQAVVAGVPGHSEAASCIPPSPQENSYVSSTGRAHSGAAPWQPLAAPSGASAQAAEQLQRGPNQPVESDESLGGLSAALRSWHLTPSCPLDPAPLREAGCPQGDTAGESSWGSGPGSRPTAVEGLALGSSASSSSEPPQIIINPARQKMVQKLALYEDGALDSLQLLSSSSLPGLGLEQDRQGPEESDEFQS
Proto-oncogene tyrosine-protein kinase receptor Ret (Homo sapiens), sequence (P07949 whole entry): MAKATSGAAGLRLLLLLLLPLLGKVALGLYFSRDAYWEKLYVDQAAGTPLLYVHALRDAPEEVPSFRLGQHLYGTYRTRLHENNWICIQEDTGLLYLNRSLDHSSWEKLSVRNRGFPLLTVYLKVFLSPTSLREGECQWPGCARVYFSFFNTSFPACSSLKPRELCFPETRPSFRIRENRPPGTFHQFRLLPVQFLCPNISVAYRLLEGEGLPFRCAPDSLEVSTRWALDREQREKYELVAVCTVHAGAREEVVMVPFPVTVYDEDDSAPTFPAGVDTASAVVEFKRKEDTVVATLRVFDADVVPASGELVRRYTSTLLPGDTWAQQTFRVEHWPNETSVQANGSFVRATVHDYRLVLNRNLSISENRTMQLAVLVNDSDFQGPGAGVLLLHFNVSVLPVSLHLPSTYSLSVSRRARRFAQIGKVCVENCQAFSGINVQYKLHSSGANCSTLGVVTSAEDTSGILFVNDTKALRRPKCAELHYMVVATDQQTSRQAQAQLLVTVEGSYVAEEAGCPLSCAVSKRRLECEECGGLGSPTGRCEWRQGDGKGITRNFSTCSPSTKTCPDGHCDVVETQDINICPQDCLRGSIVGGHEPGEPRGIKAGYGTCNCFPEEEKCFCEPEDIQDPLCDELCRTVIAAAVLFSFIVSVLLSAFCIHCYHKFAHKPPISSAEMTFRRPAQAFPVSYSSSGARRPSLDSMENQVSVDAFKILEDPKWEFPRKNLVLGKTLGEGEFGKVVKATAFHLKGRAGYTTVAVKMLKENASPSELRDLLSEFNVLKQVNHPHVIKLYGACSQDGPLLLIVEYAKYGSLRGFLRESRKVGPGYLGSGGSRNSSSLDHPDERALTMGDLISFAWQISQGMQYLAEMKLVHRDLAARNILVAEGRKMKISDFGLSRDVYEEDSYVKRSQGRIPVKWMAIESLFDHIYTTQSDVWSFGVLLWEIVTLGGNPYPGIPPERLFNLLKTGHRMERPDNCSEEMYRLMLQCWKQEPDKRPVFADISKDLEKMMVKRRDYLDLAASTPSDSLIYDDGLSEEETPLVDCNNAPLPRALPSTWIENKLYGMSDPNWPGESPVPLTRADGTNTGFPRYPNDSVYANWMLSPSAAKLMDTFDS
Serine/threonine-protein kinase PAK 4 (Homo sapiens), sequence (O96013 whole entry, looked up): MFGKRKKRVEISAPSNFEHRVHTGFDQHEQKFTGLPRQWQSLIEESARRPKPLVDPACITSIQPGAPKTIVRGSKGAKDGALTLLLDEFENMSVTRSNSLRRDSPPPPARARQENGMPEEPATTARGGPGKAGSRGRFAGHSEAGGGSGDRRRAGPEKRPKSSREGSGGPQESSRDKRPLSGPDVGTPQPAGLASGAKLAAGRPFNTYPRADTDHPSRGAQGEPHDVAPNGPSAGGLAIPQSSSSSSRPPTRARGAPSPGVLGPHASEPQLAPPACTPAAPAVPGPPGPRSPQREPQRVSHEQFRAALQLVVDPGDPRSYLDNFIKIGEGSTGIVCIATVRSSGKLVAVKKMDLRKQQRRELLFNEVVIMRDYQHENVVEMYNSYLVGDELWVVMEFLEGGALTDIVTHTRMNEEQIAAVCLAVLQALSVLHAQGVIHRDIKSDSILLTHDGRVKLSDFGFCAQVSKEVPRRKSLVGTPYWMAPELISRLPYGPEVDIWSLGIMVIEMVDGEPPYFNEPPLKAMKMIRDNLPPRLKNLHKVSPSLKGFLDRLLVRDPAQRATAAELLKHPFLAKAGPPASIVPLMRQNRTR
Tyrosine-protein kinase JAK1 (Homo sapiens), sequence (P23458 whole entry): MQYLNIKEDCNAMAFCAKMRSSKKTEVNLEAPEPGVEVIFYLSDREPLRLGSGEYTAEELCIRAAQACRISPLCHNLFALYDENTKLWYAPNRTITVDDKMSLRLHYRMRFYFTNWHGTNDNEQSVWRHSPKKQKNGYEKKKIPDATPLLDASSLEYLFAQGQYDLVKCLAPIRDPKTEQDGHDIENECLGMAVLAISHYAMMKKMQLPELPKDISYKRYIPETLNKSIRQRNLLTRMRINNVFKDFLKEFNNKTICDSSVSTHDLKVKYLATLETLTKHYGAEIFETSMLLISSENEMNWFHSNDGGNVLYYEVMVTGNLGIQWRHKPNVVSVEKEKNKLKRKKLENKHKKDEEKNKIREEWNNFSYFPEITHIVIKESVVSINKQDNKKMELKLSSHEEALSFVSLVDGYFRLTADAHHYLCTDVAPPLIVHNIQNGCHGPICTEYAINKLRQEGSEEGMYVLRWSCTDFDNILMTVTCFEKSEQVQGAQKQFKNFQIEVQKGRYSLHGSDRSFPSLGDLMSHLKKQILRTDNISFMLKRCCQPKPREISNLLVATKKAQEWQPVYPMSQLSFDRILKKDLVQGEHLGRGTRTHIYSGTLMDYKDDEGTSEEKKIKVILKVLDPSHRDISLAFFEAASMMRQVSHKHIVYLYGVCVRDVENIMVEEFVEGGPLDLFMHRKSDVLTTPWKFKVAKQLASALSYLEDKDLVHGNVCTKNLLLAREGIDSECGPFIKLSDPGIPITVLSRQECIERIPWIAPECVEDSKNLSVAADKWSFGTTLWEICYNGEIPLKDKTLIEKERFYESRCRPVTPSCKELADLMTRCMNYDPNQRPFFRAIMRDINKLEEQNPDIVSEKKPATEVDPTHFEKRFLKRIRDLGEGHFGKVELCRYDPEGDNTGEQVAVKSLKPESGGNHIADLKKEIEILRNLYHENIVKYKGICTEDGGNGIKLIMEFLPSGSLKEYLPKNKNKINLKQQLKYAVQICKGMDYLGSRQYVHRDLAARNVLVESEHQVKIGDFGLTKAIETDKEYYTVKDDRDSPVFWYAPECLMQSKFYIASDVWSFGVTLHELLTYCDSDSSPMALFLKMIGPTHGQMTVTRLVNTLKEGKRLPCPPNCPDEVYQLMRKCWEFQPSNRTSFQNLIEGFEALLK
Serine/threonine-protein kinase ULK3 (Homo sapiens), sequence (Q6PHR2 whole entry): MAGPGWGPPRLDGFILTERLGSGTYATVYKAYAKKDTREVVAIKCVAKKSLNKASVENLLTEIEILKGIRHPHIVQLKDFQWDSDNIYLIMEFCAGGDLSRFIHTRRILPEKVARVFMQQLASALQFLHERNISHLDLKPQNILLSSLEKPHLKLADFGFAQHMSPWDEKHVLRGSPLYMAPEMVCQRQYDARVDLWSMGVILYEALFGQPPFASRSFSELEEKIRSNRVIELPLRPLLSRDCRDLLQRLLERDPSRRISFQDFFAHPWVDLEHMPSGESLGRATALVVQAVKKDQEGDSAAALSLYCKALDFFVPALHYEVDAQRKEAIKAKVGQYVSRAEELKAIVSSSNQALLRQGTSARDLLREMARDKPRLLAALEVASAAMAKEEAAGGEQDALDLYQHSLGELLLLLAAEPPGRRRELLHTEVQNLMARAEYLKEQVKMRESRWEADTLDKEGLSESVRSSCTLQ
Serine/threonine-protein kinase MAK (Homo sapiens), sequence (P20794 whole entry): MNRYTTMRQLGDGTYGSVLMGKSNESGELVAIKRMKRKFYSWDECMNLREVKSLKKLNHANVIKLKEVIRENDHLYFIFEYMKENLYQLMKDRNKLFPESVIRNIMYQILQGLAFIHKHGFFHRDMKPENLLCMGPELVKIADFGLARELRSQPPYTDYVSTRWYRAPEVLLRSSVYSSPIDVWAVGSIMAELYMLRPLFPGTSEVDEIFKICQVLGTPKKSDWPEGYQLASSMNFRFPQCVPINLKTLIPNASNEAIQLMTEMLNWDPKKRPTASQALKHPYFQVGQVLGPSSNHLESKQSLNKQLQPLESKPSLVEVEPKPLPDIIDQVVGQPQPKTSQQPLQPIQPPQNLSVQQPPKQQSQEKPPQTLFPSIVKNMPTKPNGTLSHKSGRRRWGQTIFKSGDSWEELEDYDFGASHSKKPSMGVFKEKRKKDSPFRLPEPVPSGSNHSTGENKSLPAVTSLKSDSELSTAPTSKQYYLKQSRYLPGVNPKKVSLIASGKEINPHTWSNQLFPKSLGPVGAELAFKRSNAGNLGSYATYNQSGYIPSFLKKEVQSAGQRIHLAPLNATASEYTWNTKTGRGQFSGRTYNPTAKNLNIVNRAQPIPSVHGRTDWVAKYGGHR
Proto-oncogene tyrosine-protein kinase receptor Ret (Homo sapiens), P07949 [V804M], sequence (P07949 whole entry V804M): as the sequence (P07949 whole entry) above, with V804M counted along it

O=C(O)[C@@H]1[C@@H](Cn2nnc3ccccc3c2=O)CC[C@H]1C(=O)c1ccc(OCCC2CCOCC2)cc1 [BAY-694]
inactive: residual activity [1] 86% | residual activity [2] 100% | residual activity [3] 100% | residual activity [4] 97% | residual activity [5] 100% | residual activity [6] 100% | residual activity [7] 100% | residual activity [8] 100% | residual activity [9] 100% | residual activity [10] 100% | residual activity [11] 100% | residual activity [12] 100% | residual activity [13] 82% | residual activity [14] 93% | residual activity [15] 78% | residual activity [16] 84% | residual activity [17] 78% | residual activity [18] 75% | residual activity [19] 94% | residual activity [20] 100% | inhibition [21] 7.62% | residual activity [22] 100% | residual activity [23] 100% | inhibition [24] 39.3% | residual activity [25] 100% | residual activity [26] 100% | residual activity [27] 100% | residual activity [28] 90% | residual activity [29] 100% | residual activity [30] 100% | residual activity [31] 94% | residual activity [32] 79% | residual activity [33] 100% | residual activity [34] 99% | residual activity [35] 89% | residual activity [36] 96% | residual activity [37] 100% | residual activity [38] 58% | residual activity [39] 100%

O=C(O)[C@H]1[C@H](Cn2nnc3ccccc3c2=O)CC[C@@H]1C(=O)c1ccc(OCCC2CCOCC2)cc1 [BAY-7598]
inactive: residual activity [1] 100% | residual activity [2] 100% | residual activity [3] 100% | residual activity [4] 98% | residual activity [5] 100% | residual activity [6] 81% | residual activity [7] 100% | residual activity [8] 100% | residual activity [9] 100% | residual activity [10] 85% | residual activity [11] 100% | residual activity [12] 96% | residual activity [13] 70% | residual activity [14] 100% | residual activity [15] 95% | residual activity [16] 61% | residual activity [17] 61% | residual activity [18] 78% | residual activity [19] 100% | residual activity [20] 92% | inhibition [21] -0.18% | residual activity [22] 100% | residual activity [23] 91% | inhibition [24] 28.5% | residual activity [25] 100% | residual activity [26] 65% | residual activity [27] 100% | residual activity [28] 100% | residual activity [29] 82% | residual activity [30] 100% | residual activity [31] 88% | residual activity [32] 88% | residual activity [33] 95% | residual activity [34] 100% | residual activity [35] 91% | residual activity [36] 85% | residual activity [37] 100% | residual activity [38] 65% | residual activity [39] 100%
